From ChEMBL document CHEMBL1201862, “PubChem BioAssay data set” (2004)
Activity calls are given as the source filed them. Cut-off read from the data, not from the text of the source, for most assays here: actives have a measured EC50 and inactives only a lower limit.

What was measured:
[1] = biological target: T1, Corticotropin-releasing factor receptor 2/Corticotropin-releasing factor-binding protein (Homo sapiens, UniProt P24387+Q13324); test: activators of CRF receptor 2 with binding protein – uHTS hits, confirmation (AID 602473); assay type: functional; conditions: read-out: EC50_Mean
T1 sequence (Q13324 whole entry): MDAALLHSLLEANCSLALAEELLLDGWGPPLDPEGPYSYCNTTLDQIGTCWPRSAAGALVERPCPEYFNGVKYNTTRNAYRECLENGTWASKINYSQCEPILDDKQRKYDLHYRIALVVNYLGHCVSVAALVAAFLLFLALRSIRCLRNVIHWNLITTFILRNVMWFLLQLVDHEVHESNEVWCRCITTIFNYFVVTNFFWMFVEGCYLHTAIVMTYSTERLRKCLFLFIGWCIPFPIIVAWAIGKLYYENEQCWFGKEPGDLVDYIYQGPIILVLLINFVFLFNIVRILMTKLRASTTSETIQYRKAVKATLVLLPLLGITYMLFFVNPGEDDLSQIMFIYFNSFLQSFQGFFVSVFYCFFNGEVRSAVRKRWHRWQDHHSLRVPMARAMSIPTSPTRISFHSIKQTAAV
T1 sequence (P24387 whole entry): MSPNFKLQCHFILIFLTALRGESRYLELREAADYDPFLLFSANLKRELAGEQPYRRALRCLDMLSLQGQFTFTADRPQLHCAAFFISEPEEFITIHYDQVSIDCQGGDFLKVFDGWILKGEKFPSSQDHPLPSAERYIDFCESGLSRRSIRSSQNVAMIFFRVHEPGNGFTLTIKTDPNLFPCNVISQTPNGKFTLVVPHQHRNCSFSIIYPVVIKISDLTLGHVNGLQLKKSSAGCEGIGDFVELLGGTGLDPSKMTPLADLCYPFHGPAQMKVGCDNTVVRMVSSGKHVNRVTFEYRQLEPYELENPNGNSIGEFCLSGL

[2] = biological target: T1, Corticotropin-releasing factor receptor 2/Corticotropin-releasing factor-binding protein; test: Dose Response confirmation of uHTS hits for small molecule antagonists of the CRF-binding protein and CRF-R2 receptor complex.; assay type: functional; conditions: read-out: IC50_Mean
cells [3] = assay type: functional, cell-based
cells [4] = assay type: functional, cell-based; remark: listed apart in the source
[5] = biological target: T2, Ubiquitin-conjugating enzyme E2 N (Homo sapiens, UniProt P61088); assay type: functional;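 note: Dose-response confirmation in a TR-FRET assay detecting UBC13-driven polyubiquitin chain formation, inhibition measured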
T2 sequence (P61088 whole entry): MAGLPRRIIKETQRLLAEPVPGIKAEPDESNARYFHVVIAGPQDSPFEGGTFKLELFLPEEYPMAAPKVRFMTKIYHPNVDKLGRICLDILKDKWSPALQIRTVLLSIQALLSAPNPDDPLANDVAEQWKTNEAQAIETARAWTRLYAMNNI

H4 = test: Luminescence Cell-Based Dose Response HTS to Identify Activators of 5'UTR Stem-Loop Driven Prion Protein mRNA Translation in H4 Neuroglioblastoma Cells. [Related pubchem assays: 1829 (Project Summary), 1814 (Primary HTS)]; assay type: functional; conditions: Homo sapiens
[6] = Luminescence Cell-Based Dose Response HTS to Identify Activators of Luciferase Translation or Activity in H4 […] Cells. [Related pubchem assays: 1829 (Project Summary), 1814 (Primary HTS)]; assay type: functional
[7] = Luminescence Cell-Based Dose Confirmation HTS to Identify Activators of 5'UTR Stem-Loop Driven Alpha-Synuclein mRNA Translation in H4 Neuroglioblastoma Cells. [Related pubchem assays: 1829 (Project Summary), 1814 (Primary HTS)]; assay type: functional
[8] = inhibitors of HIV Env-driven cell fusion, dose response, cherry-pick (AID 652057); assay type: functional, cell-based
[9] = inhibitors of clade B AD8 Env fusion, dose response, cell-based, cherry-pick (AID 652062); assay type: functional;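 note: luciferase signal from cell-cell fusion driven by HIV-1 clade B AD8 Env; potency is for inhibitors of fusion seen as a drop in luminescence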
[10] = system: Streptococcus sp. 'group A'; test: growth inhibition of control SK(-) GAS strain, dose response, counter-screen for streptokinase expression inhibitor project, luminescence, kanamycin, BacTiterGlo, confirmation (AID 1900); assay type: functional, organism-based
Streptococcus = test: Group A Streptococcus viability loss, dose response, counter-screen for streptokinase expression inhibitor project, luminescence, BacTiterGlo (AID 1915); assay type: functional, organism-based;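 note: potency for reduction of bacterial viability or growth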
[11] = biological target: T3, Replicative DNA helicase DnaB (Mycobacterium tuberculosis, UniProt P9WMR3); test: DnaB intein splicing inhibitors, dose response, biochemical, cell-free fluorescence (AID 449749); assay type: functional
T3 sequence (P9WMR3 whole entry): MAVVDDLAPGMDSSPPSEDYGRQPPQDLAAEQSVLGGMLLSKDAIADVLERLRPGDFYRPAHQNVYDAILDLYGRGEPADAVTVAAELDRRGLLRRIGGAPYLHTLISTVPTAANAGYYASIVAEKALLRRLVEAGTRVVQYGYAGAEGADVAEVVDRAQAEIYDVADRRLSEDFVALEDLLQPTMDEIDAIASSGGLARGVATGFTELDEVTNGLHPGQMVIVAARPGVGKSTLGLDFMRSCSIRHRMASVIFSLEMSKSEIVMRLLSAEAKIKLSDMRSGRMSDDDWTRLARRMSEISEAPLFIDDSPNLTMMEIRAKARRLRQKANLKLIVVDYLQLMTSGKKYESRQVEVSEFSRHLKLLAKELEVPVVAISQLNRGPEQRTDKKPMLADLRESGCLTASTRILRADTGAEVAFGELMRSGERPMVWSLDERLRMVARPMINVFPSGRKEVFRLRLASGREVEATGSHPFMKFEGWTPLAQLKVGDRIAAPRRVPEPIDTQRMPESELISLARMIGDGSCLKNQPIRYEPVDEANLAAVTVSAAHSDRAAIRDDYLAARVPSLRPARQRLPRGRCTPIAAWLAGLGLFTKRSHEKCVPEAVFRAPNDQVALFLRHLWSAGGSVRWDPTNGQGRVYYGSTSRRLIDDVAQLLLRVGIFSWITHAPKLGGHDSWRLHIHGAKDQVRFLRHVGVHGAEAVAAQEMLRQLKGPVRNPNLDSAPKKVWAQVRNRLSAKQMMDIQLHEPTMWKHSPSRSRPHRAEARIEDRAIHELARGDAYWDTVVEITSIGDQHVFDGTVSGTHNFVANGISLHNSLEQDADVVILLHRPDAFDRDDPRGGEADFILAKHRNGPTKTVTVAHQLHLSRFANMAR

[12] = microbe, parasite or virus in culture; assay type: functional; conditions: Mycobacterium tuberculosis
Protein RecA = biological target: T4, Protein RecA (Mycobacterium tuberculosis, UniProt P9WHJ3); test: Fluorescence Cell-Free Homogeneous Dose Retest to Identify Inhibitors of RecA-Intein Splicing Activity. [Related pubchem assays (depositor defined):AID2097, AID2223, AID489010, AID492950]; assay type: functional
T4 sequence (P9WHJ3 whole entry): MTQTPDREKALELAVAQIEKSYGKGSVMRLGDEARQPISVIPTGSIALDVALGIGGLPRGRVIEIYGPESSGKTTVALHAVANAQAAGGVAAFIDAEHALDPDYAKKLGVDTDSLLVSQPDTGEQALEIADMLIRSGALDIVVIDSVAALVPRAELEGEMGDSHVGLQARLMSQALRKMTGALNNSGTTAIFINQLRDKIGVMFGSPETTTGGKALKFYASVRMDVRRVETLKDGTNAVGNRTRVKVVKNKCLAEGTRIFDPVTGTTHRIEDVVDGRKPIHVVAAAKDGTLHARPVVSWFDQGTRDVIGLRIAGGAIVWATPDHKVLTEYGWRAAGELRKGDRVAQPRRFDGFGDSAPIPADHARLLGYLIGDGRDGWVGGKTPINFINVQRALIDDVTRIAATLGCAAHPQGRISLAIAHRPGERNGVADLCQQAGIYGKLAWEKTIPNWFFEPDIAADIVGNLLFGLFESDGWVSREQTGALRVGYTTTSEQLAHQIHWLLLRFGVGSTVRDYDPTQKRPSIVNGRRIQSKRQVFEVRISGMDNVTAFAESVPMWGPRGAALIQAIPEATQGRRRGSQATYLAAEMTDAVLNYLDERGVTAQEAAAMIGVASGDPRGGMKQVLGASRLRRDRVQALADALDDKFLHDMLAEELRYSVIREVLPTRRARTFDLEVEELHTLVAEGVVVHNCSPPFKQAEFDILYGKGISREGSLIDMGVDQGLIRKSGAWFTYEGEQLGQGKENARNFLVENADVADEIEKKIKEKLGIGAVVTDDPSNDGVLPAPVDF

Paired box protein Pax-8 = Paired box protein Pax-8 (Homo sapiens, UniProt Q06710); test: inhibitors of PAX8-driven TPO luciferase reporter, dose response, RMG-I cells, cherry-pick (AID 687027); assay type: functional, cell-based;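 note: luciferase reporter driven by Pax8 target thyroperoxidase promoter measured by SteadyGlo luminescence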
Paired box protein Pax-8, sequence (Q06710 whole entry): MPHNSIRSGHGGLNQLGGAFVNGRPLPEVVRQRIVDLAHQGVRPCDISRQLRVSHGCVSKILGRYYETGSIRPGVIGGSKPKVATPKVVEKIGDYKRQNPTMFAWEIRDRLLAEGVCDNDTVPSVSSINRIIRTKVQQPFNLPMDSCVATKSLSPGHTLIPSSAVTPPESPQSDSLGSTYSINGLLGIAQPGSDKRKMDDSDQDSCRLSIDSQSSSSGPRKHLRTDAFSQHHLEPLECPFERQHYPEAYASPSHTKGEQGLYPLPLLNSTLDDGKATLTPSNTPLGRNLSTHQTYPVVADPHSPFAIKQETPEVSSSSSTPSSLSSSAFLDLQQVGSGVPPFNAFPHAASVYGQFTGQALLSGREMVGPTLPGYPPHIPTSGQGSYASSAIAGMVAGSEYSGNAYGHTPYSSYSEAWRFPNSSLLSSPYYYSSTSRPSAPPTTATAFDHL

[13] = NIH:OVCAR-3 ovarian cancer cell cytotoxicity, dose response, PAX8 inhibitor project, plate reader, dry powder samples (AID 743044); assay type: functional, cell-based

CCC(C)NC(=O)CSc1nc2ccccc2c(=O)n1CCCC(=O)NCC1CCCO1 (stereo unspecified)
EC50 [1]: > 53 µM (inactive) | IC50 [2]: > 47.1 µM (inactive)

O=C(c1ccc(OC2CCN(CCc3ccccc3)CC2)cc1)N1CCCC(CCCO)C1 (stereo unspecified)
EC50 (cells [3]): > 350 µM (not active) | EC50 (cells [4]): > 350 µM (not active)

O=C(O)C(c1ccccc1)C1(O)CCCC1 (stereo unspecified)
EC50 [1]: > 53 µM (inactive) | IC50 [2]: > 47.1 µM (inactive)

Cc1ccc(S(=O)(=O)N(C)CC(=O)NCCCn2ccnc2)cc1
EC50 (cells [3]): > 350 µM (not active) | EC50 (cells [4]): > 350 µM (not active)

COC(=O)c1cc(-c2cccs2)nc2ccccc12
IC50 [5]: > 20 µM (inactive)

N#C/C(=C(/O)c1ccc(F)cc1)c1nc2ccccc2s1
EC50 (cells [3]): 7.41 µM (active) | EC50 (cells [4]): > 350 µM (not active)

O=C(Cn1c(Cc2ccccc2)nc2ccccc21)NCc1ccc2c(c1)OCO2
EC50 (cells [3]): > 350 µM (not active) | EC50 (cells [4]): > 350 µM (not active)

Cc1ccc(C(=O)NCCN2C3=NC[C@H](Cc4ccc(O)cc4)N3C[C@H]2Cc2ccc(O)cc2)cc1Br
IC50 [5]: > 20 µM (inactive)

Cc1ccc(NC2=NC(=O)c3cccc([N+](=O)[O-])c32)cc1
EC50 (H4): 26.8 µM (active) | EC50 [6]: 26.7 µM (active) | EC50 [7]: 77.8 µM (active)

Cc1nn(-c2cccc([N+](=O)[O-])c2)c(N)c1-c1ccccc1
EC50 [1]: > 53 µM (inactive) | IC50 [2]: > 47.1 µM (inactive)

CC(=O)N1CCOc2ccc(S(=O)(=O)N3CCCCC3)cc21
EC50 (H4): > 120 µM (not active) | EC50 [6]: > 120 µM (not active) | EC50 [7]: > 120 µM (not active)

COc1ccc(NC(=O)CSc2nc(O)c3c(n2)CCC3)cc1OC
EC50 (cells [3]): > 350 µM (not active) | EC50 (cells [4]): > 350 µM (not active)

COc1ccc(OC2C(=O)N(Cc3ccc(F)cc3)C2c2cc(OC)c(OC)c(OC)c2)cc1 (stereo unspecified)
EC50 [1]: > 53 µM (inactive) | IC50 [2]: > 47.1 µM (inactive)

CN(Cc1cccs1)C(=O)CSc1nc(N)cc(N)n1
EC50 (cells [3]): > 350 µM (not active) | EC50 (cells [4]): > 350 µM (not active)

CN1C(=O)C2(c3ccccc31)N(C)CC(c1ccccc1)C21SC(=S)N(Cc2ccco2)C1=O (stereo unspecified)
AC50 [8]: 46.4 µM (active) | AC50 [9]: 36.5 µM (active)

O=C(NCCCC1CCCC1)C1CCC(=O)N(Cc2cccc(F)c2)C1 (stereo unspecified)
EC50 (H4): > 120 µM (not active) | EC50 [6]: > 120 µM (not active) | EC50 [7]: > 120 µM (not active)

O=C(Nc1nc(-c2ccccn2)cs1)c1ccc(S(=O)(=O)N2CCCCC2)cc1
EC50 (cells [3]): > 350 µM (not active) | EC50 [10]: 0.879 µM (active) | EC50 (Streptococcus): 2.56 µM (active) | EC50 (cells [4]): 13.4 µM (active)

Cn1c(CO)nc2c3ccccc3ccc21
EC50 (cells [3]): > 350 µM (not active) | EC50 (cells [4]): > 350 µM (not active)

CCOc1ccc(CCNC(=O)C2CCCN(c3ncnc4c3nc3n4CCCCC3)C2)cc1 (stereo unspecified)
EC50 [1]: > 53 µM (inactive) | IC50 [2]: > 47.1 µM (inactive)

CSc1ccccc1N=C(S)NCc1ccc(Cl)cc1
EC50 (H4): 9.9 µM (active) | EC50 [6]: 5.76 µM (active) | EC50 [7]: 4.54 µM (active)

CSc1ccccc1OCc1cc(C(=O)NCc2csc(C(C)C)n2)no1
EC50 [1]: > 53 µM (inactive) | IC50 [2]: > 47.1 µM (inactive)

Cc1ccc(-c2nc3nc4ccccc4nc3n2Cc2ccco2)cc1
EC50 [6]: 13.2 µM (active) | EC50 [7]: 21.9 µM (active)

CNC(=O)C1CCN(S(=O)(=O)c2c(C)noc2/C=C/c2ccccc2F)CC1
EC50 (H4): > 120 µM (not active) | EC50 [6]: 12.8 µM (active) | EC50 [7]: 21.8 µM (active)

O=C(c1cccc(C(F)(F)F)c1)C1CCCN(C(=O)Cn2cncn2)C1 (stereo unspecified)
EC50 (cells [3]): > 350 µM (not active) | EC50 (cells [4]): > 350 µM (not active)

CCOC(=O)c1c(NC(=O)CCl)sc(CN(C)C)c1-c1ccccc1
AC50 [11]: 20.4 µM (active) | CC50 [12]: 12.5 µM (active) | EC50 (Protein RecA): 7.5 µM (active)

Nc1ncc([N+](=O)[O-])cc1S(=O)(=O)c1ccccc1
IC50 [5]: > 20 µM (inactive)

CC1(C)Cc2c(sc(/N=C/N3CCCC3)c2C#N)C(C)(C)N1
EC50 [1]: > 53 µM (inactive) | IC50 [2]: > 47.1 µM (inactive)

C[C@@H]1CCCCO[C@H](CN(C)Cc2ccncc2)[C@H](C)CN([C@H](C)CO)C(=O)c2cc(NC(=O)Nc3ccc(C(F)(F)F)cc3)ccc2O1
AC50 (Paired box protein Pax-8): 7.43 µM (active) | AC50 [13]: 35.4 µM (active)

CN(C)c1ccc(/C=N/NC(=S)NCc2ccco2)cc1
EC50 (H4): > 120 µM (not active) | EC50 [6]: 8.41 µM (active) | EC50 [7]: 15.3 µM (active)

COc1ccc(N2/C(=N/C(=O)CCC3CCCC3)SC3CS(=O)(=O)CC32)cc1 (stereo unspecified)
EC50 (cells [3]): > 350 µM (not active) | EC50 (cells [4]): > 350 µM (not active)
